Measured values as given in US8604033B2, “Preparation of 4-amino-thiazoles and 3-amino-1,2,4-thiadiazoles and their use as allosteric modulators of metabotropic glutamate receptors” (Addex Pharma S.A., priority 2010, dated 2013).
“And” between values parts separate entries of the source, which are not always exact repeats. Equal entries are not always repeated.

Columns and labels:
[1] = molecular target: T1, recombinant human mGluR4a receptors (Homo sapiens, UniProt Q14833); assay: mGluR4 assay on HEK-expressing human mGluR4 (fluorescent cell based Ca2+ mobilization assay, FLIPR); conditions: HEK-293 cells expressing hmGluR4; enhancement of EC25 glutamate response; mean of at least three independent experiments in duplicate; read-out: Ca^2+ Flux (mean EC50)
T1 construct: expressed in transfected cells
T1 sequence (Q14833 33-912): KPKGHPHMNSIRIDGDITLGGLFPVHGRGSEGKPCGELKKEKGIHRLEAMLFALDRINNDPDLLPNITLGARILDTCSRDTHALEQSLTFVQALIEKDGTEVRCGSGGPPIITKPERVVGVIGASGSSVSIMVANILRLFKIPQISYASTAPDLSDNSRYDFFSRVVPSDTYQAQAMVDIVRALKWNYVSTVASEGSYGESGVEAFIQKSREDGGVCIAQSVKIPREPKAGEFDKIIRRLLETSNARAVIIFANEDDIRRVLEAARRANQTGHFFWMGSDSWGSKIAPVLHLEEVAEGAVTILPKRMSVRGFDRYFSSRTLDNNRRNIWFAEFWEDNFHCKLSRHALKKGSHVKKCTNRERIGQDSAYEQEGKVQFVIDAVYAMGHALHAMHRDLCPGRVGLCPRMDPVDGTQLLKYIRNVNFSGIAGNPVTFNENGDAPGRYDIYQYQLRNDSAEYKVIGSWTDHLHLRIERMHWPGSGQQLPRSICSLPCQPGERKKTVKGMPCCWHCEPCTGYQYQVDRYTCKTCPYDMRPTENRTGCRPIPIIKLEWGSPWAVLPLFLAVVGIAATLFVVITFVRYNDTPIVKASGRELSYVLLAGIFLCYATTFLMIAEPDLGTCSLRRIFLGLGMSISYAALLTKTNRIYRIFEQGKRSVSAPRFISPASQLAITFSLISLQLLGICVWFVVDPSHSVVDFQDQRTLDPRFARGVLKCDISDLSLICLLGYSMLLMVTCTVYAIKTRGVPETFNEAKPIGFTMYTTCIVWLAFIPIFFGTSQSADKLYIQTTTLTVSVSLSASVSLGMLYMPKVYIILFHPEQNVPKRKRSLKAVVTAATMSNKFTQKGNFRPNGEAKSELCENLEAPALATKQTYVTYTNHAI
Source text: mGluR4 Assay on HEK-Expressing Human mGluR4 The compounds of the present invention are positive allosteric modulators of mGluR4 receptor. Their activity was examined on recombinant human mGluR4a receptors by detecting changes in intracellular Ca^2+ concentration, using the fluorescent Ca^2+-sensitive dye Fluo4-(AM) and a Fluorometric Imaging Plate Reader (FLIPR, Molecular Devices, Sunnyvale, Calif.). The cDNA encoding the human metabotropic glutamate receptor (hmGluR4), (accession number NM_000841.1, NCBI Nucleotide database browser), was subcloned into an expression vector containing also the hygromycin resistance gene. In parallel, the cDNA encoding a G protein allowing redirection of the activation signal to intracellular calcium flux was subcloned into a different expression vector containing also the puromycin resistance gene. Transfection of both these vectors into HEK293 cells with PolyFect reagent (Qiagen) according to supplier's protocol, and hygromycin and puromycin treatment allowed selection of antibiotic resistant cells which had integrated stably one or more copies of the plasmids. Positive cellular clones expressing hmGluR4 were identified in a functional assay measuring changes in calcium fluxes in response to glutamate or selective known mGluR4 orthosteric agonists and antagonists. HEK-293 cells expressing hmGluR4 were maintained in media containing DMEM, dialyzed Fetal Calf Serum (10%), Glutamax™ (2 mM), Penicillin (100 units/mL), Streptomycin (100 μg/mL), Geneticin (100 μg/mL) and Hygromycin-B (40 μg/mL) and puromycin (1 μg/mL) at 37° C./5% CO2. Human mGluR4HEK-293 cells were plated out 24 hours prior to FLIPR^384 assay in black-walled, clear-bottomed, poly-L-ornithine-coated 384-well plates at a density of 25,000 cells/well in a glutamine/glutamate free DMEM medium containing foetal bovine serum (10%), penicillin (100 units/mL) and streptomycin (100 μg/mL) at 37° C./5% CO2. On the day of the assay, the medium was aspirated and the cells were loaded with a 3 μM solution of Fluo4-AM (LuBioScience, Lucerne, Switzerland) in 0.03% pluronic acid. After 1 hour at 37° C./5% CO2, the non incorporated dye was removed by washing cell plate with the assay buffer and the cells were left in the dark at room temperature for […] before testing. All assays were performed in a pH 7.4 buffered-solution containing 20 mM HEPES, 143 mM NaCl, 6 mM KCl, 1 mM MgSO4, 1 mM CaCl2, 0.125 mM sulfapyrazone and 0.1% glucose. After 10 s of basal fluorescence recording, various concentrations of the compounds of the invention were added to the cells. Changes in fluorescence levels were first monitored for 180 s in order to detect any agonist activity of the compounds. Then the cells were stimulated by an EC25 glutamate concentration for an additional 110 s in order to measure enhancing activities of the compounds of the invention. EC25 glutamate concentration is the concentration giving 25% of the maximal glutamate response. The concentration-response curves of representative compounds of the present invention were generated using the Prism GraphPad software (Graph Pad Inc, San Diego, USA). The curves were fitted to a four-parameter logistic equation: (Y=Bottom+(Top−Bottom)/(1+10^((Log EC50−X)*Hill Slope) allowing the determination of EC50 values. The Table 3 below represents the mean EC50 obtained from at least three independent experiments of selected molecules performed in duplicate.

EC50 [1] | melting point | SMILES
< 100 nM | 207 to 209 °C and 209 to 210 °C | c1ccc(Nc2csc(-c3cn[nH]c3)n2)nc1 [Compound 1-1, 2-(1H-Pyrazol-4-yl)-N-(pyridin-2-yl)thiazol-4-amine]
100 to 1000 nM | – | c1ccc(Nc2nsc(-c3cn[nH]c3)n2)nc1 [Compound 1-2, 5-(1H-Pyrazol-4-yl)-N-(pyridin-2-yl)-1,2,4-thiadiazol-3-amine]
< 100 nM | 238 to 240 °C | Fc1cccc(Nc2csc(-c3cn[nH]c3)n2)n1 [Compound 1-3, N-(6-Fluoropyridin-2-yl)-2-(1H-pyrazol-4-yl)thiazol-4-amine]
100 to 1000 nM | 230 to 232 °C | Cc1ccnc(Nc2csc(-c3cn[nH]c3)n2)n1 [Compound 1-4, N-(4-Methylpyrimidin-2-yl)-2-(1H-pyrazol-4-yl)thiazol-4-amine]
100 to 1000 nM | 250 to 252 °C | COc1ccnc(Nc2csc(-c3cn[nH]c3)n2)n1 [Compound 1-5, N-(4-Methoxypyrimidin-2-yl)-2-(1H-pyrazol-4-yl)thiazol-4-amine]
100 to 1000 nM | – | Cc1cccc(Nc2csc(-c3cn[nH]c3)n2)n1 [Compound 1-6, N-(6-Methylpyridin-2-yl)-2-(1H-pyrazol-4-yl)thiazol-4-amine]
< 100 nM | 217 °C (dec.) | c1cnc(Nc2csc(-c3cn[nH]c3)n2)nc1 [Compound 1-7, 2-(1H-Pyrazol-4-yl)-N-(pyrimidin-2-yl)thiazol-4-amine]
100 to 1000 nM | 204 to 206 °C | FC(F)(F)c1n[nH]cc1-c1nc(Nc2ccccn2)cs1 [Compound 1-8, N-(Pyridin-2-yl)-2-(3-(trifluoromethyl)-1H-pyrazol-4-yl)thiazol-4-amine]
< 100 nM | 141.3 °C | c1ccc(Nc2csc(-c3c[nH]nc3C3CC3)n2)nc1 [Compound 1-9, 2-(3-Cyclopropyl-1H-pyrazol-4-yl)-N-(pyridin-2-yl)thiazol-4-amine]
< 100 nM | 241 °C | c1cnc(Nc2csc(-c3c[nH]nc3C3CC3)n2)nc1 [Compound 1-10, 2-(3-Cyclopropyl-1H-pyrazol-4-yl)-N-(pyrimidin-2-yl)thiazol-4-amine]
< 100 nM | – | FC(F)(F)c1n[nH]cc1-c1nc(Nc2ncccn2)cs1 [Compound 1-11, N-(Pyrimidin-2-yl)-2-(3-(trifluoromethyl)-1H-pyrazol-4-yl)thiazol-4-amine]
